Measurements published in patent publication US20240101546A1, “HETEROARYL-ACETYLENES, PHARMACEUTICAL COMPOSITIONS THEREOF, AND THEIR THERAPEUTIC APPLICATIONS” (Eubulus Biotherapeutics Inc., priority 2020, published 2024).
pEC50: −log10 of the molar value.

Tested on: hepatocellular carcinoma cell line Hub-7
Experiment: Cell proliferation assay, Hub-7 (CELL-TITER GLO)
Assay type: cell-based
Conditions: Hub-7 cells, 24 h incubation, cell viability by CELL-TITER GLO, top concentration 10 μM; read-out: EC50, Inhibition of Hub-7 Cell Proliferation
Procedure: The activity of a compound was determined in a cell proliferation assay using the hepatocellular carcinoma cell line Hub-7. Cells (4,000 cells per well) were seeded in a 96-well tissue culture plate. After incubated overnight, the compound was added at predetermined concentrations, starting with 10 μM and followed by 3-fold serial dilution. After the cells were incubated for 24 h, cell viability was determined using a CELL-TITER GLO® assay. The CELL-TITER GLO® reagent (50 μL) was added to each well and the luminescence was measured by a multimode microplate reader after a brief period of shaking. EC50 values were determined for the compound. The results are summarized in Table 1, wherein A represents a value no greater than 200 nM, B represents a value greater than 200 nM but no greater than 1 μM, C represents a value greater than 1 μM but no greater than 5 μM, and D represents a value greater than 5 μM.

Question: C#Cc1nc(NC(=O)NCc2ccc(-c3cccc4c3S(=O)(=O)C=C4)cc2)cs1 [Compound A1, 1-(4-(1,1-Dioxidobenzo[b]thiophen-7-yl)benzyl)-3-(2-ethynylthiazol-4-yl)urea] was tested. Which pEC50 did it give?
Answer: 6.00 to 6.70

Question: With C#Cc1nc(NC(=O)NCc2ccc(-c3cccc4c3S(=O)(=O)CC4O)cc2)cs1 (centres unmarked) [Compound A2, 1-(2-Ethynylthiazol-4-yl)-3-(4-(3-hydroxy-1,1-dioxido-2,3-dihydrobenzo[b]-thiophen-7-yl)benzyl)urea] as the compound, how does the pEC50 read?
Answer: 5.30 to 6.00

Question: C#Cc1nc(NC(=O)NCc2ccc(-c3cccc4c3S(=O)(=O)CC4=O)cc2)cs1 [Compound A3, 1-(4-(1,1-Dioxido-3-oxo-2,3-dihydrobenzo[b]thiophen-7-yl)benzyl)-3-(2-ethynyl-thiazol-4-yl)urea] was tested. Which pEC50 did it give?
Answer: 5.30 to 6.00

Question: C#Cc1nc(NC(=O)NCc2ccc(-c3cc4ncsc4c4c3CNC4=O)cc2)cs1 [Compound A4, 1-(2-Ethynylthiazol-4-yl)-3-(4-(8-oxo-7,8-dihydro-6H-thiazolo[5,4-e]isoindol-5-yl)benzyl)urea] was tested. Which pEC50 did it give?
Answer: 6.00 to 6.70

Question: With C#Cc1nc(NC(=O)NCc2ccc(-c3cccc(N4CC[C@H](O)C4)c3)cc2)cs1 [Compound A5, (S)-1-(2-Ethynylthiazol-4-yl)-3-((3′-(3-hydroxypyrrolidin-1-yl)-[1,1′-biphenyl]-4-yl)methyl)urea] as the compound, how does the pEC50 read?
Answer: 6.00 to 6.70

Question: How did the pEC50 turn out when C#Cc1nc(NC(=O)NCc2ccc(-c3cccc4ncsc34)cc2)cs1 [Compound A6, 1-(4-(benzo[d]thiazol-7-yl)benzyl)-3-(2-ethynylthiazol-4-yl)urea] was run?
Answer: ≥ 6.70

Question: With C#Cc1nc(NC(=O)NCc2ccc(-c3cccc(N4CCCC4)c3)cc2)cs1 [Compound A7, 1-(2-Ethynylthiazol-4-yl)-3-((3′-(pyrrolidin-1-yl)-[1,1′-biphenyl]-4-yl)methyl)urea] as the compound, how does the pEC50 read?
Answer: ≥ 6.70

Question: C#Cc1nc(NC(=O)NCc2ccc(-c3ccccc3)cc2)cs1 [Compound A8, 1-([1,1′-Biphenyl]-4-ylmethyl)-3-(2-ethynylthiazol-4-yl)urea] was tested. Which pEC50 did it give?
Answer: ≥ 6.70

Question: How did the pEC50 turn out when C#Cc1nc(NC(=O)NCc2ccc(-c3cccc4ncnc(O)c34)cc2)cs1 [Compound A9, 1-(2-Ethynylthiazol-4-yl)-3-(4-(4-hydroxyquinazolin-5-yl)benzyl)urea] was run?
Answer: ≥ 6.70

Question: C#Cc1nc(NC(=O)NCc2ccc(-c3cccc(C(N)=O)c3)cc2)cs1 [Compound A10, 4′-((3-(2-Ethynylthiazol-4-yl)ureido)methyl)-[1,1′-biphenyl]-3-carboxamide] was tested. Which pEC50 did it give?
Answer: 6.00 to 6.70

Question: How did the pEC50 turn out when C#Cc1nc(NC(=O)NCc2ccc(-c3cccc4ncn(C)c(=O)c34)cc2)cs1 [Compound A11, 1-(2-Ethynylthiazol-4-yl)-3-(4-(3-methyl-4-oxo-3,4-dihydroquinazolin-5-yl)-benzyl)urea] was run?
Answer: 6.00 to 6.70

Question: C#Cc1nc(NC(=O)NCc2ccc(-c3cc4ncsc4cc3F)cc2)cs1 [Compound A12, 1-(2-Ethynylthiazol-4-yl)-3-(4-(6-fluorobenzo[d]thiazol-5-yl)benzyl)urea] was tested. Which pEC50 did it give?
Answer: 6.00 to 6.70

Question: With C#Cc1nc(NC(=O)NCc2ccc(-c3ccccc3S(=O)(=O)NC)cc2)cs1 [Compound A13, 4′-((3-(2-Ethynylthiazol-4-yl)ureido)methyl)-N-methyl-[1,1′-biphenyl]-2-sulfonamide] as the compound, how does the pEC50 read?
Answer: 6.00 to 6.70

Question: How did the pEC50 turn out when C#Cc1nc(NC(=O)NCc2ccc(-c3cccc(C(=O)NC)c3)cc2)cs1 [Compound A14, 4′-((3-(2-Ethynylthiazol-4-yl)ureido)methyl)-N-methyl-[1,1′-biphenyl]-3-carboxamide] was run?
Answer: 6.00 to 6.70

Question: How did the pEC50 turn out when C#Cc1nc(NC(=O)NCc2ccc(-c3c(C)ccc4c3cnn4C)cc2)cs1 [Compound A15, 1-(4-(1,5-Dimethyl-1H-indazol-4-yl)benzyl)-3-(2-ethynylthiazol-4-yl)urea] was run?
Answer: ≥ 6.70

Question: C#Cc1nc(NC(=O)NCc2ccc(-c3cccc4c3cnn4C)cc2)cs1 [Compound A16, 1-(2-Ethynylthiazol-4-yl)-3-(4-(1-methyl-1H-indazol-4-yl)benzyl)urea] was tested. Which pEC50 did it give?
Answer: ≥ 6.70

Question: With C#Cc1nc(NC(=O)NCc2ccc(-c3c(C(=O)NC)ccc4ncsc34)cc2)cs1 [Compound A17, 7-(4-((3-(2-Ethynylthiazol-4-yl)ureido)methyl)phenyl)-N-methylbenzo[d]-thiazole-6-carboxamide] as the compound, how does the pEC50 read?
Answer: 5.30 to 6.00

Question: C#Cc1nc(NC(=O)NCc2ccc(-c3cccc4ccnc(O)c34)cc2)cs1 [Compound A18, 1-(2-Ethynylthiazol-4-yl)-3-(4-(1-hydroxyisoquinolin-8-yl)benzyl)urea] was tested. Which pEC50 did it give?
Answer: 6.00 to 6.70

Question: With C#Cc1nc(NC(=O)NCc2ccc(-c3c(C(N)=O)ccc4ncsc34)cc2)cs1 [Compound A19, 7-(4-((3-(2-Ethynylthiazol-4-yl)ureido)methyl)phenyl)benzo[d]thiazole-6-carboxamide] as the compound, how does the pEC50 read?
Answer: 6.00 to 6.70

Question: With C#Cc1nc(NC(=O)NCc2ccc(-c3cc(C(N)=O)cc4c3cnn4C)cc2)cs1 [Compound A20, 4-(4-((3-(2-Ethynylthiazol-4-yl)ureido)methyl)phenyl)-1-methyl-1H-indazole-6-carboxamide] as the compound, how does the pEC50 read?
Answer: 5.30 to 6.00

Question: With C#Cc1nc(NC(=O)NCc2ccc(-c3cc(C(=O)NC)cc4c3cnn4C)cc2)cs1 [Compound A21, 4-(4-((3-(2-Ethynylthiazol-4-yl)ureido)methyl)phenyl)-N,1-dimethyl-1H-indazole-6-carboxamide] as the compound, how does the pEC50 read?
Answer: 6.00 to 6.70

Question: How did the pEC50 turn out when C#Cc1nc(NC(=O)NCc2ccc(-c3cc(C(=O)OC)cc4c3cnn4C)cc2)cs1 [Compound A22, Methyl 4-(4-((3-(2-ethynylthiazol-4-yl)ureido)methyl)phenyl)-1-methyl-1H-indazole-6-carboxylate] was run?
Answer: ≥ 6.70

Question: How did the pEC50 turn out when C#Cc1nc(NC(=O)NCc2ccc(-c3cc(C(=O)N(C)C)cc4c3cnn4C)cc2)cs1 [Compound A23, 4-(4-((3-(2-Ethynylthiazol-4-yl)ureido)methyl)phenyl)-N,N,1-trimethyl-1H-indazole-6-carboxamide] was run?
Answer: 6.00 to 6.70

Question: C#Cc1nc(NC(=O)N2CCCC2c2ccc(-c3cccc4ncsc34)cc2)cs1 (centres unmarked) [Compound B1, 2-(4-(Benzo[d]thiazol-7-yl)phenyl)-N-(2-ethynylthiazol-4-yl)pyrrolidine-1-carboxamide] was tested. Which pEC50 did it give?
Answer: 6.00 to 6.70

Question: C#Cc1nc(NC(=O)N2CC(c3ccc(-c4cccc5ncsc45)cc3)C2)cs1 [Compound B2, 3-(4-(Benzo[d]thiazol-7-yl)phenyl)-N-(2-ethynylthiazol-4-yl)azetidine-1-carboxamide] was tested. Which pEC50 did it give?
Answer: ≥ 6.70

Question: C#Cc1nc(NC(=O)N2CCc3cc(-c4cccc5ncsc45)ccc3C2)cs1 [Compound B3, 6-(Benzo[d]thiazol-7-yl)-N-(2-ethynylthiazol-4-yl)-3,4-dihydroisoquinoline-2(1H)-carboxamide] was tested. Which pEC50 did it give?
Answer: 6.00 to 6.70

Question: C#Cc1nc(NC(=O)N2Cc3ccc(-c4cccc5ncsc45)cc3C2)cs1 [Compound B4, 5-(Benzo[d]thiazol-7-yl)-N-(2-ethynylthiazol-4-yl)isoindoline-2-carboxamide] was tested. Which pEC50 did it give?
Answer: 6.00 to 6.70

Question: With C#Cc1nc(NC(=O)N2CCN(c3ccc(-c4cccc5ncsc45)cc3)CC2)cs1 [Compound B5, 4-(4-(Benzo[d]thiazol-7-yl)phenyl)-N-(2-ethynylthiazol-4-yl)piperazine-1-carboxamide] as the compound, how does the pEC50 read?
Answer: ≥ 6.70

Question: With C#Cc1nc(NC(=O)N2CCC(c3ccc(-c4cccc5ncsc45)cc3)CC2)cs1 [Compound B6, 4-(4-(Benzo[d]thiazol-7-yl)phenyl)-N-(2-ethynylthiazol-4-yl)piperidine-1-carboxamide] as the compound, how does the pEC50 read?
Answer: ≥ 6.70

Question: How did the pEC50 turn out when C#Cc1nc(C(=O)NCCc2ccc(-c3cc4ncsc4cc3F)cc2)cs1 [Compound C1, 2-Ethynyl-N-(4-(6-fluorobenzo[d]thiazol-5-yl)phenethyl)thiazole-4-carboxamide] was run?
Answer: 6.00 to 6.70

Question: How did the pEC50 turn out when C#Cc1nc(C(=O)NCCc2ccc(-c3cccc4ncsc34)c(F)c2)cs1 [Compound C2, N-(4-(Benzo[d]thiazol-7-yl)-3-fluorophenethyl)-2-ethynylthiazole-4-carboxamide] was run?
Answer: ≥ 6.70

Question: C#Cc1nc(C(=O)NCCc2ccc(-c3c(C(N)=O)ccc4ncsc34)cc2)cs1 [Compound C3, 7-(4-(2-(2-Ethynylthiazole-4-carboxamido)ethyl)phenyl)benzo[d]thiazole-6-carboxamide] was tested. Which pEC50 did it give?
Answer: 6.00 to 6.70

Question: With C#Cc1nc(C(=O)NCCc2ccc(-c3cccc(C(=O)NC)c3)cc2)cs1 [Compound C4, 2-Ethynyl-N-(2-(3′-(methylcarbamoyl)-[1,1′-biphenyl]-4-yl)ethyl)thiazole-4-carboxamide] as the compound, how does the pEC50 read?
Answer: ≥ 6.70

Question: How did the pEC50 turn out when C#Cc1nc(C(=O)NCCc2ccc(-c3c(F)ccc4ncsc34)cc2)cs1 [Compound C5, 2-Ethynyl-N-(4-(6-fluorobenzo[d]thiazol-7-yl)phenethyl)thiazole-4-carboxamide] was run?
Answer: ≥ 6.70

Question: C#Cc1nc(C(=O)NCCc2ccc(-c3ccccc3S(=O)(=O)N(C)C)cc2)cs1 [Compound C6, N-(2-(2′-(N,N-Dimethylsulfamoyl)-[1,1′-biphenyl]-4-yl)ethyl)-2-ethynylthiazole-4-carboxamide] was tested. Which pEC50 did it give?
Answer: ≥ 6.70

Question: With C#Cc1nc(C(=O)NCCc2ccc(-c3cc(C(N)=O)cc4ncsc34)cc2)cs1 [Compound C8, 7-(4-(2-(2-Ethynylthiazole-4-carboxamido)ethyl)phenyl)benzo[d]thiazole-5-carboxamide] as the compound, how does the pEC50 read?
Answer: 6.00 to 6.70

Question: C#Cc1nc(C(=O)NCCc2ccc(-c3cc(C(=O)NC)cc4ncsc34)cc2)cs1 [Compound C9, 7-(4-(2-(2-Ethynylthiazole-4-carboxamido)ethyl)phenyl)-N-methylbenzo[d]-thiazole-5-carboxamide] was tested. Which pEC50 did it give?
Answer: 6.00 to 6.70

Question: C#Cc1nc(C(=O)NCCc2ccc(-c3cc(C(=O)OC)cc4ncsc34)cc2)cs1 [Compound C10, Methyl 7-(4-(2-(2-ethynylthiazole-4-carboxamido)ethyl)phenyl)benzo[d]thiazole-5-carboxylate] was tested. Which pEC50 did it give?
Answer: ≥ 6.70
